Assay results: ChEMBL document CHEMBL5260810, “Inhibition of bromodomain-containing protein 9 for the prevention of epigenetically-defined drug resistance” (Bioorg Med Chem Lett, 2017)

Molecular target: Tyrosine-protein kinase JAK1 (Homo sapiens) (UniProt P23458)
Test: Inhibition of JAK1 (unknown origin) at 1 uM relative to control
Settings: not given

Chain of Tyrosine-protein kinase JAK1 (Homo sapiens) (P23458 whole entry): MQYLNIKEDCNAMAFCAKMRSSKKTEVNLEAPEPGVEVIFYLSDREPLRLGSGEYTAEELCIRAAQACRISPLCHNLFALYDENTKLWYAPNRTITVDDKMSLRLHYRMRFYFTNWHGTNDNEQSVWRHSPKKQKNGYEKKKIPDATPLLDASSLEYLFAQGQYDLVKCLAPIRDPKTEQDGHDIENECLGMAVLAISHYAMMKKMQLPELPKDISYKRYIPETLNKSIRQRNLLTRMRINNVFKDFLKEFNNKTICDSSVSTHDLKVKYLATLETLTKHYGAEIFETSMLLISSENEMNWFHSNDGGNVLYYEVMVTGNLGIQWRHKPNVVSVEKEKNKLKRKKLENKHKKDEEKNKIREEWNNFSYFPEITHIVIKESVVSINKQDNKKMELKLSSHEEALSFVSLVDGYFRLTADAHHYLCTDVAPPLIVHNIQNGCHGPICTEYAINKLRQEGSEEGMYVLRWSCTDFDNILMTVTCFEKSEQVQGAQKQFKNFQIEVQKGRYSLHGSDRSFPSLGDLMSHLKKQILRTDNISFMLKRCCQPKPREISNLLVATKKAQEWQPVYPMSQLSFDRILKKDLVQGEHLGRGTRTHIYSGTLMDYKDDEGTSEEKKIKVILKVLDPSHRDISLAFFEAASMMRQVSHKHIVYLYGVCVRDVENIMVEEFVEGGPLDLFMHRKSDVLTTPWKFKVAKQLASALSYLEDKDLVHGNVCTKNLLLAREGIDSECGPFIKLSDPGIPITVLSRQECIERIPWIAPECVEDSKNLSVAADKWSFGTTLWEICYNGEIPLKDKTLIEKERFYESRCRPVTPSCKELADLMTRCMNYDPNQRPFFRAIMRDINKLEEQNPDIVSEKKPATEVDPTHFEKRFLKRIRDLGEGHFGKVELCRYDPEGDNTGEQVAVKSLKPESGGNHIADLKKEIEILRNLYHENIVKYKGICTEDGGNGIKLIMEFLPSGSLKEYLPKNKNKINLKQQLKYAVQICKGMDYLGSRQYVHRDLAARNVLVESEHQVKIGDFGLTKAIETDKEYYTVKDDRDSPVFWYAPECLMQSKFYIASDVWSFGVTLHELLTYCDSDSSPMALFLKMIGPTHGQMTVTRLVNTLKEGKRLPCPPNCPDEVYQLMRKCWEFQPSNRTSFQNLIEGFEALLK

SMILES	inhibition [%]
C/C=C/Cn1cc(-c2cc(OC)c(C(=O)N3CCOCC3)cc2OC)c2cc(C)[nH]c2c1=O	-4.5
C/C=C/Cn1cc(-c2ccc(C(C)(C)O)cc2OC)c2cc[nH]c2c1=O	-2.5

Molecular target: L-type calcium channel, verapamil binding site (Rattus norvegicus, UniProt P22002+P27732+Q02485)
Test: Displacement of [3H]D 888 from rat brain L-type calcium channel verapamil binding site at 10 uM after 120 mins by scintillation counting analysis relative to control
Settings: rat brain L-type calcium channel preparation, probe [3H]D 888, read-out: Activity

SMILES	inhibition at 2 h, 10 µM [%]
C/C=C/Cn1cc(-c2cc(OC)c(C(=O)N3CCOCC3)cc2OC)c2cc(C)[nH]c2c1=O	3
C/C=C/Cn1cc(-c2ccc(C(C)(C)O)cc2OC)c2cc[nH]c2c1=O	-3

Test system: not listed separately
Test: Cytotoxicity against human VMRC-LCD cells measured after 8 days
Format: functional, cell-based
Settings: 192 h

SMILES	IC50 [µM]
C/C=C/Cn1cc(-c2cc(OC)c(C(=O)N3CCOCC3)cc2OC)c2cc(C)[nH]c2c1=O	2
C/C=C/Cn1cc(-c2ccc(C(C)(C)O)cc2OC)c2cc[nH]c2c1=O	20

Test system: KNS-62
Test: Cytotoxicity against human KNS-62 cells measured after 8 days
Format: functional, cell-based
Settings: KNS-62, 192 h

SMILES	IC50 [µM]
C/C=C/Cn1cc(-c2cc(OC)c(C(=O)N3CCOCC3)cc2OC)c2cc(C)[nH]c2c1=O	2
C/C=C/Cn1cc(-c2ccc(C(C)(C)O)cc2OC)c2cc[nH]c2c1=O	14.7

Molecular target: T1, Peregrin (Homo sapiens, UniProt P55201)
T1 sequence (P55201 whole entry): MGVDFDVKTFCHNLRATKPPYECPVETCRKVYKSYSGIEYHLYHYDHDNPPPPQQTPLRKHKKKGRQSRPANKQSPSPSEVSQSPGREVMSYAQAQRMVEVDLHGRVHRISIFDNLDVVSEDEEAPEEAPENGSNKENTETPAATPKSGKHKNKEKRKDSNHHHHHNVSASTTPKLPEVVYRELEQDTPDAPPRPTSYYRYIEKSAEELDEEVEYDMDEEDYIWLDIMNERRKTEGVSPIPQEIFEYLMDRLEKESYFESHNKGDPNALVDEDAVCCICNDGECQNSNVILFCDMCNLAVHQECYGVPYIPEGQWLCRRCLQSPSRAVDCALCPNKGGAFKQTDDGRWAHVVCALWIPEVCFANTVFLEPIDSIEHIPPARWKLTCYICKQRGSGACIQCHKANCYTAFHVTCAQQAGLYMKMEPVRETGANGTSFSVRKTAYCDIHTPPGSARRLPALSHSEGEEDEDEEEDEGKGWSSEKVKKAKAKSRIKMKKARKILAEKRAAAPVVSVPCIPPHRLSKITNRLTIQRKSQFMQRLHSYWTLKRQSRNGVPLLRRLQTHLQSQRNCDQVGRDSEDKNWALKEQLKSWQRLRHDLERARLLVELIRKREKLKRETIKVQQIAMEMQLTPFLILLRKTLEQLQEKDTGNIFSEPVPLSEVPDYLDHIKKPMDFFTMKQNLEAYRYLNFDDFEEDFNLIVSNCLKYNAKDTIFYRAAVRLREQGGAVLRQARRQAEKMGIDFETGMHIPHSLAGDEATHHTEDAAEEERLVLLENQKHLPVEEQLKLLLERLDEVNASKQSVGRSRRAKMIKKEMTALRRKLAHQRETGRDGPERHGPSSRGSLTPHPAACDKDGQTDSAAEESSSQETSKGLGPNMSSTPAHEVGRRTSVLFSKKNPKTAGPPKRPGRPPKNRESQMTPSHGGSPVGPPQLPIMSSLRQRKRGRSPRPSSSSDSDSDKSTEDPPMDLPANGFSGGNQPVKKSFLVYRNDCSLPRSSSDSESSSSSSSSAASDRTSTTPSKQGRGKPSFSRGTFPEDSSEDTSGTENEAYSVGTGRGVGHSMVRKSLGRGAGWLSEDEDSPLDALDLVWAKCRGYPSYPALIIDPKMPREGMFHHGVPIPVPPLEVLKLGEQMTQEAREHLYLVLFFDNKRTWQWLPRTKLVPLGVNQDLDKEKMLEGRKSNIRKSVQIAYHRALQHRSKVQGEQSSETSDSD
Test: Binding affinity to human partial length BRPF1 (E627 to G740 residues) expressed in bacterial expression system by BROMOscan assay
Settings: not given

SMILES	Kd [µM]
C/C=C/Cn1cc(-c2cc(OC)c(C(=O)N3CCOCC3)cc2OC)c2cc(C)[nH]c2c1=O	> 10
C/C=C/Cn1cc(-c2ccc(C(C)(C)O)cc2OC)c2cc[nH]c2c1=O	> 10

Molecular target: T2, Bromodomain-containing protein 3 (Homo sapiens, UniProt Q15059)
Test: Binding affinity to human partial length BRD3 bromodomain 1 (P24 to E144 residues) expressed in bacterial expression system by BROMOscan assay
Settings: not given

T2 sequence (Q15059 whole entry, the tested form may be a part): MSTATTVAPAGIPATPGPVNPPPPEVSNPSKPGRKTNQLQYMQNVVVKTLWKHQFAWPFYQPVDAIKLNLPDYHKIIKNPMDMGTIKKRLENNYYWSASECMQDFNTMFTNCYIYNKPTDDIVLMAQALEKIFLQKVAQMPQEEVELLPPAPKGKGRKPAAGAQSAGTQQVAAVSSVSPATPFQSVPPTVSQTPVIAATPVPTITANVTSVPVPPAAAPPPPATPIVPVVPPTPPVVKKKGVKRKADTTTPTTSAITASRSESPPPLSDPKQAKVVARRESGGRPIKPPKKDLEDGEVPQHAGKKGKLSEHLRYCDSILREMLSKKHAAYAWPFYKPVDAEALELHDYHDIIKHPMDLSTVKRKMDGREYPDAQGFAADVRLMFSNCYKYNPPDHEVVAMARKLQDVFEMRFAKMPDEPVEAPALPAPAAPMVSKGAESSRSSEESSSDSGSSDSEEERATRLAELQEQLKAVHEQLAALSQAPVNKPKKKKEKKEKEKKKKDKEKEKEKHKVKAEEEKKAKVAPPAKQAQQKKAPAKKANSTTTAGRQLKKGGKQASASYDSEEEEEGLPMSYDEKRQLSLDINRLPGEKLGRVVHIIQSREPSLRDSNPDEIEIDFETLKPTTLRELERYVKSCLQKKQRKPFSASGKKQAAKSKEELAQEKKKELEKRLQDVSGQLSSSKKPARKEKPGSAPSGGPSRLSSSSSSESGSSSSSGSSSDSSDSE

SMILES	Kd [µM]
C/C=C/Cn1cc(-c2cc(OC)c(C(=O)N3CCOCC3)cc2OC)c2cc(C)[nH]c2c1=O	> 10
C/C=C/Cn1cc(-c2ccc(C(C)(C)O)cc2OC)c2cc[nH]c2c1=O	3.2

Test system: not listed separately
Test: Cytotoxicity against human SK-MEL-23 cells measured after 8 days
Format: functional, cell-based
Settings: SK-MEL-23, 192 h

SMILES	IC50 [µM]
C/C=C/Cn1cc(-c2cc(OC)c(C(=O)N3CCOCC3)cc2OC)c2cc(C)[nH]c2c1=O	2
C/C=C/Cn1cc(-c2ccc(C(C)(C)O)cc2OC)c2cc[nH]c2c1=O	20

Test system: not listed separately
Test: Cytotoxicity against human KMS-21BM cells measured after 8 days
Format: functional, cell-based
Settings: 192 h

SMILES	IC50 [µM]
C/C=C/Cn1cc(-c2cc(OC)c(C(=O)N3CCOCC3)cc2OC)c2cc(C)[nH]c2c1=O	2
C/C=C/Cn1cc(-c2ccc(C(C)(C)O)cc2OC)c2cc[nH]c2c1=O	20

Test system: Raji
Test: Cytotoxicity against human Raji cells measured after 8 days
Format: functional, cell-based
Settings: 192 h

SMILES	IC50 [µM]
C/C=C/Cn1cc(-c2cc(OC)c(C(=O)N3CCOCC3)cc2OC)c2cc(C)[nH]c2c1=O	2
C/C=C/Cn1cc(-c2ccc(C(C)(C)O)cc2OC)c2cc[nH]c2c1=O	12.4

Test system: GP5d
Test: Cytotoxicity against human GP5d cells measured after 8 days
Format: functional, cell-based
Settings: 192 h

SMILES	IC50 [µM]
C/C=C/Cn1cc(-c2cc(OC)c(C(=O)N3CCOCC3)cc2OC)c2cc(C)[nH]c2c1=O	2
C/C=C/Cn1cc(-c2ccc(C(C)(C)O)cc2OC)c2cc[nH]c2c1=O	20

Test system: Granta-519
Test: Cytotoxicity against human Granta-519 cells measured after 8 days
Format: functional, cell-based
Settings: Granta-519, 192 h

SMILES	IC50 [µM]
C/C=C/Cn1cc(-c2cc(OC)c(C(=O)N3CCOCC3)cc2OC)c2cc(C)[nH]c2c1=O	2
C/C=C/Cn1cc(-c2ccc(C(C)(C)O)cc2OC)c2cc[nH]c2c1=O	20

Molecular target: cAMP-dependent protein kinase (PKA) (Homo sapiens) (UniProt P22694+P17612+P22612)
Test: Inhibition of PKA (unknown origin) at 1 uM relative to control
Format: protein assay
Settings: not given

SMILES	inhibition [%]
C/C=C/Cn1cc(-c2cc(OC)c(C(=O)N3CCOCC3)cc2OC)c2cc(C)[nH]c2c1=O	6
C/C=C/Cn1cc(-c2ccc(C(C)(C)O)cc2OC)c2cc[nH]c2c1=O	3

Molecular target: Sodium-dependent dopamine transporter (Homo sapiens) (UniProt Q01959)
Test: Displacement of […] from recombinant human Dopamine transporter at 10 uM after 120 mins by scintillation counting analysis relative to control
Settings: not given

Chain of Sodium-dependent dopamine transporter (Homo sapiens) (Q01959 whole entry): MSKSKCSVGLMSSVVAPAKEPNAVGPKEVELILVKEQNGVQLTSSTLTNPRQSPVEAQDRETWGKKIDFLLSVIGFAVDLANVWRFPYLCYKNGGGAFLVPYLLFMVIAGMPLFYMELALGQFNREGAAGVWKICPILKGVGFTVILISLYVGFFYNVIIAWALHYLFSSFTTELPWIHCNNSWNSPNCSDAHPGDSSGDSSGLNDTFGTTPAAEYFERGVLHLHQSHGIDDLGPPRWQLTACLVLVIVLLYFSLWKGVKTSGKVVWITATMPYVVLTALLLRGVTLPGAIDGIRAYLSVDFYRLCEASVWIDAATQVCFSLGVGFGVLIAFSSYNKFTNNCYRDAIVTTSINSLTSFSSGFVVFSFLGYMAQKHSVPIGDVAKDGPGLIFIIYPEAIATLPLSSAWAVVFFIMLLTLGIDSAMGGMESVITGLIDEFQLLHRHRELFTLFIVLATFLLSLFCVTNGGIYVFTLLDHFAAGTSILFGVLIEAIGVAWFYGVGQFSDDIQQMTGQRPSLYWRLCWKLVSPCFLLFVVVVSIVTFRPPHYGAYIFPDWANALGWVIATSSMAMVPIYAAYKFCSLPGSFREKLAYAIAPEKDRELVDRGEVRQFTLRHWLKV

SMILES	Activity [%]
C/C=C/Cn1cc(-c2cc(OC)c(C(=O)N3CCOCC3)cc2OC)c2cc(C)[nH]c2c1=O	11
C/C=C/Cn1cc(-c2ccc(C(C)(C)O)cc2OC)c2cc[nH]c2c1=O	15

Test system: not listed separately
Test: Cytotoxicity against human HCA7 cells measured after 8 days
Format: functional, cell-based
Settings: HCA-7, 192 h

SMILES	IC50 [µM]
C/C=C/Cn1cc(-c2cc(OC)c(C(=O)N3CCOCC3)cc2OC)c2cc(C)[nH]c2c1=O	2
C/C=C/Cn1cc(-c2ccc(C(C)(C)O)cc2OC)c2cc[nH]c2c1=O	20

Molecular target: T3, Endothelin-1 receptor (Homo sapiens) (UniProt P25101)
T3 sequence (whole entry): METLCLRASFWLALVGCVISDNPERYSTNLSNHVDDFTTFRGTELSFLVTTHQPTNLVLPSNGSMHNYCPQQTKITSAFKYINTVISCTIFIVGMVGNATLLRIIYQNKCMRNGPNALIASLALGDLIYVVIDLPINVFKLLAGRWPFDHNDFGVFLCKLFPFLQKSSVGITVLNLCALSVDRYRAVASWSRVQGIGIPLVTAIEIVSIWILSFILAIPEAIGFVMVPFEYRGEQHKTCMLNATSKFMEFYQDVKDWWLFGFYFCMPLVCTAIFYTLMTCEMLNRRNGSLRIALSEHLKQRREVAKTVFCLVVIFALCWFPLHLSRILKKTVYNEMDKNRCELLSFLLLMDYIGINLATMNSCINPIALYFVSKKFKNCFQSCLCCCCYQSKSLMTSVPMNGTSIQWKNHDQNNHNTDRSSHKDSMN
Test: Displacement of [125I]-endothelin-1 from human recombinant ETA receptor at 10 uM after 120 mins by scintillation counting analysis relative to control
Settings: not given

SMILES	Activity [%]
C/C=C/Cn1cc(-c2cc(OC)c(C(=O)N3CCOCC3)cc2OC)c2cc(C)[nH]c2c1=O	16
C/C=C/Cn1cc(-c2ccc(C(C)(C)O)cc2OC)c2cc[nH]c2c1=O	12

Molecular target: Bromodomain-containing protein 8 (Homo sapiens, UniProt Q9H0E9)
Test: Binding affinity to BRD8 bromodomain 1 (unknown origin) by BROMOscan assay
Settings: not given

SMILES	Kd [µM]
C/C=C/Cn1cc(-c2cc(OC)c(C(=O)N3CCOCC3)cc2OC)c2cc(C)[nH]c2c1=O	> 10
C/C=C/Cn1cc(-c2ccc(C(C)(C)O)cc2OC)c2cc[nH]c2c1=O	> 10

Test system: NCI-H226
Test: Cytotoxicity against human NCI-H226 cells measured after 8 days
Format: functional, cell-based
Settings: NCI-H226, 192 h

SMILES	IC50 [µM]
C/C=C/Cn1cc(-c2cc(OC)c(C(=O)N3CCOCC3)cc2OC)c2cc(C)[nH]c2c1=O	2
C/C=C/Cn1cc(-c2ccc(C(C)(C)O)cc2OC)c2cc[nH]c2c1=O	20

Test system: BT-549
Test: Cytotoxicity against human BT-549 cells measured after 8 days
Format: functional, cell-based
Settings: BT-549, 192 h

SMILES	IC50 [µM]
C/C=C/Cn1cc(-c2cc(OC)c(C(=O)N3CCOCC3)cc2OC)c2cc(C)[nH]c2c1=O	2
C/C=C/Cn1cc(-c2ccc(C(C)(C)O)cc2OC)c2cc[nH]c2c1=O	12.2

Test system: MKN-45
Test: Cytotoxicity against human MKN-45 cells measured after 8 days
Format: functional, cell-based
Settings: MKN-45, 192 h

SMILES	IC50 [µM]
C/C=C/Cn1cc(-c2cc(OC)c(C(=O)N3CCOCC3)cc2OC)c2cc(C)[nH]c2c1=O	2
C/C=C/Cn1cc(-c2ccc(C(C)(C)O)cc2OC)c2cc[nH]c2c1=O	20

Molecular target: T2, Bromodomain-containing protein 3
Test: Binding affinity to human partial length BRD3 bromodomain 2 (G306 to P416 residues) expressed in bacterial expression system by BROMOscan assay
Settings: not given

SMILES	Kd [µM]
C/C=C/Cn1cc(-c2cc(OC)c(C(=O)N3CCOCC3)cc2OC)c2cc(C)[nH]c2c1=O	> 10
C/C=C/Cn1cc(-c2ccc(C(C)(C)O)cc2OC)c2cc[nH]c2c1=O	4

Test system: CAL-51
Test: Cytotoxicity against human CAL-51 cells measured after 8 days
Format: functional, cell-based
Settings: CAL-51, 192 h

SMILES	IC50 [µM]
C/C=C/Cn1cc(-c2cc(OC)c(C(=O)N3CCOCC3)cc2OC)c2cc(C)[nH]c2c1=O	2
C/C=C/Cn1cc(-c2ccc(C(C)(C)O)cc2OC)c2cc[nH]c2c1=O	20

Molecular target: CREB-binding protein (Homo sapiens, UniProt Q92793)
Test: Binding affinity to human partial length CREBBP (R1081 to G1197 residues) expressed in bacterial expression system by BROMOscan assay
Settings: not given

Chain of CREB-binding protein (Q92793 whole entry, the tested form may be a part): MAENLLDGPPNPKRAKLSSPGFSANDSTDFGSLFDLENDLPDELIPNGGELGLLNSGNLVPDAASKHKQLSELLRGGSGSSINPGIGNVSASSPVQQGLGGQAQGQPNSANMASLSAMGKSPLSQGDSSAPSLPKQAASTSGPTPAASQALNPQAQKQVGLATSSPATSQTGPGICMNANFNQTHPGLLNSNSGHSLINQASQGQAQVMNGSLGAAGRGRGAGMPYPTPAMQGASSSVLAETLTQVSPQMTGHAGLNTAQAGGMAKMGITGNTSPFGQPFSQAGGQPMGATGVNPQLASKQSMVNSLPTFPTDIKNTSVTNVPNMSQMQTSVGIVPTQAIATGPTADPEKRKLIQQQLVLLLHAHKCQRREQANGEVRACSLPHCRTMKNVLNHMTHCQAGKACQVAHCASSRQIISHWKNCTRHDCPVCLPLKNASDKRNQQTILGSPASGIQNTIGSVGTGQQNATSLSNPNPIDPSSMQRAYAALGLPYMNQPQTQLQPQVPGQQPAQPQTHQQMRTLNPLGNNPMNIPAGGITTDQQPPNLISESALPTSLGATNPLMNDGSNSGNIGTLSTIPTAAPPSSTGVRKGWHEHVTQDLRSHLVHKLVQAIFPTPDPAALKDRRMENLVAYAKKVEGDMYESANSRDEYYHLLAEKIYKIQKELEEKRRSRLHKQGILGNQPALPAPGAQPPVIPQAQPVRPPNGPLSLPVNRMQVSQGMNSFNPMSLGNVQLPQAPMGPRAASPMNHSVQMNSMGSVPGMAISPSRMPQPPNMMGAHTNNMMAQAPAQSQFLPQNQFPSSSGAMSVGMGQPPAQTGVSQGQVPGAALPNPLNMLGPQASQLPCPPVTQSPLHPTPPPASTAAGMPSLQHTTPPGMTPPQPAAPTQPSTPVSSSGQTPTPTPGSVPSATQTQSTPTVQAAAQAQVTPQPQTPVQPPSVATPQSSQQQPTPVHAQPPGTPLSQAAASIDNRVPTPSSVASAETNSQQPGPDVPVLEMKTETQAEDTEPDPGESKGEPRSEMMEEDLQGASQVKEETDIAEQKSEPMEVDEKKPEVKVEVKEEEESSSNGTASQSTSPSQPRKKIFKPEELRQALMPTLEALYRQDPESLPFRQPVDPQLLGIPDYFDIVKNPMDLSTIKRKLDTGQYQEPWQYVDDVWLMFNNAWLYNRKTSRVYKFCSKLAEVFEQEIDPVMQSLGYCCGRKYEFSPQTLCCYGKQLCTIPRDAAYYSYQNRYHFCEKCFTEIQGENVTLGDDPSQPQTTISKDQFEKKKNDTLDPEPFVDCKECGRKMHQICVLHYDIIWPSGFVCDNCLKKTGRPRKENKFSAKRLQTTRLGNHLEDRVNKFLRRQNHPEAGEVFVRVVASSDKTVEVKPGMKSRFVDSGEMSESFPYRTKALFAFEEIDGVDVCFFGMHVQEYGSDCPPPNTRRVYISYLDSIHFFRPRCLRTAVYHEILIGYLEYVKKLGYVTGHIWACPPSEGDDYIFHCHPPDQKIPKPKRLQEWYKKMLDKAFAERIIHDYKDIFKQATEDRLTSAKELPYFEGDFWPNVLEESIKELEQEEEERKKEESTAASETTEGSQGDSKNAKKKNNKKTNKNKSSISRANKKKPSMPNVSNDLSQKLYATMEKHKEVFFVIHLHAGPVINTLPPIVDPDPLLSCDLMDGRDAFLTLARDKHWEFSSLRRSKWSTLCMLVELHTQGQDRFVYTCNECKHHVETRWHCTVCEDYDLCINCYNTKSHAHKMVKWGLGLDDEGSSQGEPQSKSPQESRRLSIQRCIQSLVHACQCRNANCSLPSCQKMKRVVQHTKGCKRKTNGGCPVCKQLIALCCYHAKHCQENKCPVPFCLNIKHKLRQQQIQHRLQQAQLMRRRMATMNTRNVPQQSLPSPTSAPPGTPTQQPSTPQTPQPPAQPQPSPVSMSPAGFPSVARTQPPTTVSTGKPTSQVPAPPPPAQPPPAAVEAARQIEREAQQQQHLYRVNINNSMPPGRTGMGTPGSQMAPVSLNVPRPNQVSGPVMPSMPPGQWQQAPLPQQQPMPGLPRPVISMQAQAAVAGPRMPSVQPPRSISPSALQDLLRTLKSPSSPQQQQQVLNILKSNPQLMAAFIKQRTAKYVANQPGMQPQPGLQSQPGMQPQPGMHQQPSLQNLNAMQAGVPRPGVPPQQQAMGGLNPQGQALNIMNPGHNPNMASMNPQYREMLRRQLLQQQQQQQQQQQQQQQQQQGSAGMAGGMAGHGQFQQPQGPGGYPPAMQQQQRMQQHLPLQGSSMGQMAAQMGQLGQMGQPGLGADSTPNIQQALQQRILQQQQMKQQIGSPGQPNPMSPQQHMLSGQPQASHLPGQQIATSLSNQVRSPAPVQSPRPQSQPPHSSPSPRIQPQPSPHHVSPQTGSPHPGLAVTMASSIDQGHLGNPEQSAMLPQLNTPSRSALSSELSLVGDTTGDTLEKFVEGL

SMILES	Kd [µM]
C/C=C/Cn1cc(-c2cc(OC)c(C(=O)N3CCOCC3)cc2OC)c2cc(C)[nH]c2c1=O	> 10
C/C=C/Cn1cc(-c2ccc(C(C)(C)O)cc2OC)c2cc[nH]c2c1=O	3.5

Test system: NCI-H1975
Test: Cytotoxicity against human NCI-H1975 cells measured after 8 days
Format: functional, cell-based
Settings: NCI-H1975, 192 h

SMILES	IC50 [µM]
C/C=C/Cn1cc(-c2cc(OC)c(C(=O)N3CCOCC3)cc2OC)c2cc(C)[nH]c2c1=O	2
C/C=C/Cn1cc(-c2ccc(C(C)(C)O)cc2OC)c2cc[nH]c2c1=O	20
